Measured values: PMC10979003, “Development and crystal structures of a potent second-generation dual degrader of BCL-2 and BCL-xL” (Nature Communications, 2024)

Columns and labels:
BCL-xL R103A/D107A = molecular target: T1, BCL-xL R103A/D107A (Homo sapiens, UniProt Q07817, D107A/R103A); test: AlphaScreen binary binding, BCL-xL R103A/D107A; details: mean ± s.d., n=3
T1 construct: BCL-xL (aa 2-212) and BCL-2 (aa 1-207) transformed cells were grown in LB broth; SMT3 (N); made in house; host or cells: E. coli BL21 (DE3) codon plus
T1 sequence (Q07817 2-212 R103A/D107A): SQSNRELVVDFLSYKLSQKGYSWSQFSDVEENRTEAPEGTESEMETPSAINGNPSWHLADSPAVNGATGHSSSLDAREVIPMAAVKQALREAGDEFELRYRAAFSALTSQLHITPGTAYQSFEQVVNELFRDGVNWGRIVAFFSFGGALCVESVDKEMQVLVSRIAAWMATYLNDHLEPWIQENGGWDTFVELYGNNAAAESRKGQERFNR
Description: (§1) To test the binary/ternary binding affinities of compounds to BCL-2/BCL-xL, AlphaScreen displacement binding assay was performed to test the capabilities of testing compounds to displace a Biotin-tagged Bim (Biotin-[…]) or Bad (Biotin-[…]) from BCL-2 or BCL-xL for BCL-2 and BCL-xL binding affinities, respectively. All reagents were diluted in assay buffer of 25 mM HEPES, pH 7.5, 150 mM NaCl, 0.1% BSA, and 0.005% tween 20 prior incubation. To a 96-well PCR plate (VWR, Cat. No. 82006-636) was added 10 μL Biotin-tagged Bim (15 nM for WT or 50 nM for mutants) or Bad (15 nM for WT or 50 nM for mutants), 10 μL series diluted compounds solution (2 or 3 or 4× dilution), and 10 μL self-made 6×His tagged BCL-2 WT or mutants (25 nM WT or 50 nM mutants) or 10 μL self-made BCL-xL WT and mutants (10 nM WT or 50 nM mutants). […] The luminescence signal was detected on a Biotek’s Synergy Neo2 multimode plate reader installed with an AphaScreen filter cube. The Ki values of each compounds were calculated by fitting data into the “Binding-competitive, One site-Fit Ki” function in GraphPad Prism (9.2.0) based on concentrations of Biotin–peptide used and experimentally determined Kd values of each 6×His protein &&&and Biotin–Peptide pair.

[1] = molecular target: T2, VCB/PROTAC/BCL-xL ternary complex (Homo sapiens, UniProt P40337+Q07817); test: AlphaLISA ternary complex assay VCB/PROTAC/BCL-xL; type: binding; details: cell-free AlphaLISA
T2 construct: BCL-xL (aa 2-212) and BCL-2 (aa 1-207) transformed cells were grown in LB broth; SMT3 (N); GST (on the VCB complex); made in house; host or cells: E. coli BL21 (DE3) codon plus (stated for the BCL-xL construct)
T2 sequence (Q15369 17-112): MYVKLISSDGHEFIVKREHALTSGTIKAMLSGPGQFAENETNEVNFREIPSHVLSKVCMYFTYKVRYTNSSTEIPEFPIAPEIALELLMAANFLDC
T2 sequence (Q07817 2-212): as the sequence (Q07817 2-212 R103A/D107A) above, with A102R, A106D counted along it
T2 sequence (Q15370 whole entry, further chain, the tested form may be a part): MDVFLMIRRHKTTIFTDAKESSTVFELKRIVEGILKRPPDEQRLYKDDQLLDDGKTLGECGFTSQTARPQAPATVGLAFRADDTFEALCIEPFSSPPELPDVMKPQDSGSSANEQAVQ
T2 sequence (P40337 54-213): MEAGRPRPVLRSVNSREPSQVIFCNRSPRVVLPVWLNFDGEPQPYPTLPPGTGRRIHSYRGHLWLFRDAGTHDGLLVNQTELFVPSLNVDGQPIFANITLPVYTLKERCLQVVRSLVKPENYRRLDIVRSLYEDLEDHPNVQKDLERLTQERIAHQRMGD
Description: Assays were performed at room temperature. All reagents were diluted in assay buffer of 25 mM HEPES, pH 7.5, 150 mM NaCl, 0.1% BSA, and 0.005% tween 20. To a 96-well PCR plate (VWR, Cat. No. 82006-636) were added 10 μL self-made 6×His tagged BCL-xL (100 nM) or BCL-2 (150 nM), 10 μL series diluted compounds solution (4× dilution) and 10 μL of self-made GST-VCB (100 nM). After incubating at room temperature for 15 min, 5 µL of alpha glutathione-donor beads (160 μg/mL, PerkinElmer, Cat. No. 6765300) and 5 µL of anti-6×His acceptor beads (160 μg/mL, PerkinElmer, Cat. No. AL128M) to each well and incubated for additional 45 min in the dark before being transferred to two adjacent wells (17 µL each) of 384-well white OptiPlate (PerkinElmer, Cat. No. 6008280). The luminescence signal was detected on a Biotek’s Synergy Neo2 multimode plate reader installed with an AphaScreen filter cube. Intensity values were plotted in Graphpad Prism (9.2.0) with PROTAC concentration values represented on a log10 scale.

HiBiT-BCL-xL/HaloTag-VHL = molecular target: T3, HiBiT-BCL-xL/HaloTag-VHL (Homo sapiens, UniProt P40337+Q07817); test: NanoBRET ternary complex formation assay in 293T cells, HiBiT-BCL-xL and HaloTag-VHL; type: cell-based; details: 4 h, MG132 pretreatment
T3 construct: full-length BCL-xL and BCL-2 were expressed in cells for the nanoBRET assay; host or cells: 293T
T3 sequence (Q07817 whole entry): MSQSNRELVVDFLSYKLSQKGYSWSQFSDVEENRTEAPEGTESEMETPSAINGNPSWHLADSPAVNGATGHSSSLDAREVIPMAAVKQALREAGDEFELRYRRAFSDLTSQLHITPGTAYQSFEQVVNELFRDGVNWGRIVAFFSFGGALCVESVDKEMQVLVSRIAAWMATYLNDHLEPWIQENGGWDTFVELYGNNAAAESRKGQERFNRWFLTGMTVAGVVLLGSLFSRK
T3 sequence (Q15369 whole entry, further chain): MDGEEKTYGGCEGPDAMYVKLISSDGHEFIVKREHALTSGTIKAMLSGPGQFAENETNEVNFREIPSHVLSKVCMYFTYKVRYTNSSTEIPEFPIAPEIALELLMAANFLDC
T3 sequence (Q15370 whole entry, further chain): as the sequence (Q15370 whole entry, further chain, the tested form may be a part) above
T3 sequence (P40337 whole entry): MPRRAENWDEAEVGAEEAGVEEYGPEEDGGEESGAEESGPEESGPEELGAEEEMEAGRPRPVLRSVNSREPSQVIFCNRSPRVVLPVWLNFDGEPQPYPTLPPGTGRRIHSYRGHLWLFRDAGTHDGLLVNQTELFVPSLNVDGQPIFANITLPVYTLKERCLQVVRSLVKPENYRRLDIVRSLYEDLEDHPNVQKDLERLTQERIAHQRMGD
Description: Plasmids HaloTag-VHL (Cat. No. CS1679C155) and CMV HiBiT (Cat. No. CS1956B03) were purchased from Promega. HiBiT-BCL-xL and HiBiT-BCL-2 were constructed previously. 293T cells (8 × 10^5 cells/well in a 6-well plate) were transfected with Lipofectamine (Life Technologies) and 1 μg HaloTag-VHL, 20 ng HiBiT-BCL-xL and 20 ng LgBiT or 1 μg HaloTag-VHL, 20 ng HiBiT-BCL-2 and 20 ng LgBiT. After 48 h, 2 × 10^4 transfected cells were seeded into each well of white 96-well tissue culture plates in Gibco™ Opti-MEM™ I Reduced Serum Medium, No Phenol Red (Cat. No. 11-058-021, Fisher) containing 4% FBS with or without HaloTag NanoBRET 618 Ligand (Cat. No. PRN1662, Promega) and incubated overnight at 37 °C, 5% CO2. […] After treatment, NanoBRET Nano-Glo Substrate (cat. no. N1662, Promega) was added into the medium, and the contents were mixed by shaking the plate for 30 s before measuring donor and acceptor signals on Biotek plate reader. Dual-filtered luminescence was collected with a 450/50 nm bandpass filter (donor, NanoBiT-BCL-XL protein or NanoBiT-BCL-2 protein) and a 610-nm longpass filter (acceptor, HaloTag NanoBRET ligand) using an integration time of 0.5 s. mBRET ratios were calculated following the NanoBRET™ Nano-Glo® Detection System (Cat. No. N1662, Promega).

BCL-2 R110A = molecular target: T4, BCL-2 R110A (Homo sapiens, UniProt P10415, R110A); test: AlphaScreen binary binding, BCL-2 R110A; details: mean ± s.d., n=3
T4 construct: BCL-xL (aa 2-212) and BCL-2 (aa 1-207) transformed cells were grown in LB broth; made in house; host or cells: E. coli BL21 (DE3) codon plus
T4 sequence (P10415 1-207 R110A): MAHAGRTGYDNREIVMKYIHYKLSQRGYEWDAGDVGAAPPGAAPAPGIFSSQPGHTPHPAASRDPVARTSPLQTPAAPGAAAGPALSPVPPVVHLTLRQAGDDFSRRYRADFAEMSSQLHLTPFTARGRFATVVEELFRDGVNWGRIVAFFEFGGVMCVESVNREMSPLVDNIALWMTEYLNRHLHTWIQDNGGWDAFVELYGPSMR
Description: as §1

BCL-2 R110A E114K = molecular target: T5, BCL-2 R110A E114K (Homo sapiens, UniProt P10415, E114K/R110A); test: AlphaScreen binary binding, BCL-2 R110A E114K; details: mean ± s.d., n=3
T5 construct: BCL-xL (aa 2-212) and BCL-2 (aa 1-207) transformed cells were grown in LB broth; made in house; host or cells: E. coli BL21 (DE3) codon plus
T5 sequence (P10415 1-207 R110A/E114K): as the sequence (P10415 1-207 R110A) above, with E114K counted along it
Description: as §1

| Ki (BCL-xL R103A/D107A) | Compound | Ternary complex formation with BCL-xL (comparison with 753b) [1] | Cellular ternary complex formation with BCL-xL (comparison) (HiBiT-BCL-xL/HaloTag-VHL) | Ki (BCL-2 R110A) | Ki (BCL-2 R110A E114K) |
| --- | --- | --- | --- | --- | --- |
| 36.7 ± 3 nM | Cc1ncsc1-c1ccc(C(C)NC(=O)C2CC(O)CN2C(=O)C(NC(=O)CCCCCCC(=O)N2CCN(CC3(C)CCC(c4ccc(Cl)cc4)=C(CN4CCN(c5ccc(C(=O)NS(=O)(=O)c6ccc(NC(CCN7CCOCC7)CSc7ccccc7)c(S(=O)(=O)C(F)(F)F)c6)cc5)CC4)C3)CC2)C(C)(C)C)cc1 (centres unmarked) [753b] | – | – | – | – |
| – | Cc1ncsc1-c1ccc([C@H](C)NC(=O)[C@@H]2C[C@@H](O)CN2C(=O)[C@@H](NC(=O)CN2CCN(CC(=O)N3CCN(C[C@]4(C)CCC(c5ccc(Cl)cc5)=C(CN5CCN(c6ccc(C(=O)NS(=O)(=O)c7ccc(N[C@H](CCN8C[C@@H]9C[C@H]8CO9)CSc8ccccc8)c(S(=O)(=O)C(F)(F)F)c7)cc6)CC5)C4)CC3)CC2)C(C)(C)C)cc1 [WH244] | tighter complex | significantly lower compound concentration than 753b | 8 ± 1.2 nM | 7 ± 0.9 nM |
